Data reported in PubChem BioAssay (NCI).
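Five compound concentrations were applied to cells in 96-well plates for 48 hours; endpoints were derived by simple linear interpolation of the resulting dose-response curve. Abbreviation: GI50, concentration required for 50% inhibition of growth. At the TGI there is no net growth.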

Key:
Assay in all cases: DTP human tumour cell line panel, 48 h
SF-295 CNS = test system: SF-295 CNS
MALME-3M melanoma = test system: MALME-3M melanoma
SNB-19 CNS = test system: SNB-19 CNS
MDA-MB-231 breast = test system: MDA-MB-231 breast
NCI/ADR-RES ovarian = test system: NCI/ADR-RES ovarian
OVCAR-8 ovarian = test system: OVCAR-8 ovarian
PC-3 prostate = test system: PC-3 prostate
ACHN renal = test system: ACHN renal
HCC-2998 colon = test system: HCC-2998 colon
SNB-75 CNS = test system: SNB-75 CNS
OVCAR-4 ovarian = test system: OVCAR-4 ovarian
HOP-92 NSCLC = test system: HOP-92 NSCLC
TK-10 renal = test system: TK-10 renal
BT-549 breast = test system: BT-549 breast
HCT-15 colon = test system: HCT-15 colon
OVCAR-3 ovarian = test system: OVCAR-3 ovarian
SW-620 colon = test system: SW-620 colon
KM12 colon = test system: KM12 colon
A498 renal = test system: A498 renal
UACC-62 melanoma = test system: UACC-62 melanoma
MDA-MB-435 = test system: MDA-MB-435
OVCAR-5 ovarian = test system: OVCAR-5 ovarian
MCF7 breast = test system: MCF7 breast
UO-31 renal = test system: UO-31 renal
COLO 205 colon = test system: COLO 205 colon
SF-539 CNS = test system: SF-539 CNS
NCI-H226 lung = test system: NCI-H226 lung
NCI-H460 lung = test system: NCI-H460 lung
HCT-116 colon = test system: HCT-116 colon
T-47D breast = test system: T-47D breast
SR leukemia = test system: SR leukemia
SF-268 CNS = test system: SF-268 CNS
EKVX NSCLC = test system: EKVX NSCLC
NCI-H23 lung = test system: NCI-H23 lung
DU-145 prostate = test system: DU-145 prostate
CCRF-CEM leukemia = test system: CCRF-CEM leukemia
MDA-MB-468 breast = test system: MDA-MB-468 breast
MOLT-4 leukemia = test system: MOLT-4 leukemia
SK-MEL-5 melanoma = test system: SK-MEL-5 melanoma
786-0 renal = test system: 786-0 renal
SK-MEL-28 melanoma = test system: SK-MEL-28 melanoma
HT29 colon = test system: HT29 colon
LOX IMVI melanoma = test system: LOX IMVI melanoma
HOP-62 NSCLC = test system: HOP-62 NSCLC
RXF 393 renal = test system: RXF 393 renal
A549 NSCLC = test system: A549 NSCLC
UACC-257 melanoma = test system: UACC-257 melanoma
SK-OV-3 ovarian = test system: SK-OV-3 ovarian
SK-MEL-2 melanoma = test system: SK-MEL-2 melanoma
HS 578T breast = test system: HS 578T breast
M14 melanoma = test system: M14 melanoma
U251 CNS = test system: U251 CNS
HL-60(TB) leukemia = test system: HL-60(TB) leukemia
SN12C renal = test system: SN12C renal
CAKI-1 renal = test system: CAKI-1 renal
IGROV1 ovarian = test system: IGROV1 ovarian
RPMI-8226 leukemia = test system: RPMI-8226 leukemia
NCI-H522 lung = test system: NCI-H522 lung
K-562 leukemia = test system: K-562 leukemia

## O=C(CSc1nc2ccccc2c(=O)n1-c1ccc(Cl)cc1)Nc1ccc(-c2nc3ccccc3[nH]2)cc1
SF-295 CNS
  GI50: 3.3 µM
  TGI: 11.8 µM
MALME-3M melanoma
  GI50: 1.96 µM
  TGI: 4.47 µM
SNB-19 CNS
  GI50: 2.22 µM
  TGI: 5.28 µM
MDA-MB-231 breast
  GI50: 1.91 µM
  TGI: 3.86 µM
NCI/ADR-RES ovarian
  GI50: 2.49 µM
  TGI: 7.35 µM
OVCAR-8 ovarian
  GI50: 1.83 µM
  TGI: 3.66 µM
PC-3 prostate
  GI50: 3.01 µM
  TGI: 10.9 µM
ACHN renal
  GI50: 3.28 µM
  TGI: 10.7 µM
HCC-2998 colon
  GI50: 3.12 µM
  TGI: 11.6 µM
SNB-75 CNS
  GI50: 1.71 µM
  TGI: 6.04 µM
OVCAR-4 ovarian
  GI50: 1.88 µM
  TGI: 3.94 µM
HOP-92 NSCLC
  GI50: 1.66 µM
  TGI: 5.33 µM
TK-10 renal
  GI50: 1.85 µM
  TGI: 3.64 µM
BT-549 breast
  GI50: 5.33 µM
  TGI: 17.5 µM
HCT-15 colon
  GI50: 1.57 µM
  TGI: 3.77 µM
OVCAR-3 ovarian
  GI50: 2.05 µM
  TGI: 4.3 µM
SW-620 colon
  GI50: 1.84 µM
  TGI: 3.63 µM
KM12 colon
  GI50: 10.9 µM
  TGI: 40 µM
A498 renal
  GI50: 15.9 µM
  TGI: 29.3 µM
UACC-62 melanoma
  GI50: 1.99 µM
  TGI: 4.59 µM
MDA-MB-435
  GI50: 2.05 µM
  TGI: 4.53 µM
OVCAR-5 ovarian
  GI50: 3.12 µM
  TGI: 13.7 µM
MCF7 breast
  GI50: 1.31 µM
  TGI: 2.85 µM
UO-31 renal
  GI50: 2.03 µM
  TGI: 5.4 µM
COLO 205 colon
  GI50: 2.52 µM
  TGI: 8.14 µM
SF-539 CNS
  GI50: 2.11 µM
  TGI: 4.89 µM
NCI-H226 lung
  GI50: 9 µM
  TGI: 22.5 µM
NCI-H460 lung
  GI50: 1.77 µM
  TGI: 3.38 µM
HCT-116 colon
  GI50: 1.91 µM
  TGI: 3.65 µM
T-47D breast
  GI50: 1.78 µM
  TGI: 3.56 µM
SR leukemia
  GI50: 1.42 µM
  TGI: 7.77 µM
SF-268 CNS
  GI50: 3.67 µM
  TGI: 15.7 µM
EKVX NSCLC
  GI50: 3.95 µM
  TGI: 14.8 µM
NCI-H23 lung
  GI50: 2.24 µM
  TGI: 5.89 µM
DU-145 prostate
  GI50: 2.12 µM
  TGI: 4.76 µM
CCRF-CEM leukemia
  GI50: 4.39 µM
  TGI: 19.5 µM
MDA-MB-468 breast
  GI50: 1.9 µM
  TGI: 4.7 µM
MOLT-4 leukemia
  GI50: 3.47 µM
  TGI: 18.1 µM
SK-MEL-5 melanoma
  GI50: 3.62 µM
  TGI: 12.8 µM
786-0 renal
  GI50: 1.88 µM
  TGI: 3.69 µM
SK-MEL-28 melanoma
  GI50: 1.82 µM
  TGI: 3.43 µM
HT29 colon
  GI50: 2.1 µM
  TGI: 4.46 µM
LOX IMVI melanoma
  GI50: 1.55 µM
  TGI: 2.89 µM
HOP-62 NSCLC
  GI50: 2 µM
  TGI: 4.11 µM
RXF 393 renal
  GI50: 2.09 µM
  TGI: 5.31 µM
A549 NSCLC
  GI50: 1.57 µM
  TGI: 3.01 µM
UACC-257 melanoma
  GI50: 1.94 µM
  TGI: 4.55 µM
SK-OV-3 ovarian
  GI50: 10.2 µM
  TGI: 21.9 µM
SK-MEL-2 melanoma
  GI50: 3.06 µM
  TGI: 11.9 µM
HS 578T breast
  GI50: 2.12 µM
  TGI: 4.82 µM
M14 melanoma
  GI50: 2.48 µM
  TGI: 7.06 µM
U251 CNS
  GI50: 1.84 µM
  TGI: 3.23 µM
HL-60(TB) leukemia
  GI50: 6.92 µM
  TGI: 21.7 µM
SN12C renal
  GI50: 1.73 µM
  TGI: 3.3 µM
CAKI-1 renal
  GI50: 4.51 µM
  TGI: 15.6 µM
IGROV1 ovarian
  GI50: 3.04 µM
  TGI: 12.5 µM
RPMI-8226 leukemia
  GI50: 2.78 µM
  TGI: 10.1 µM
NCI-H522 lung
  GI50: 1.95 µM
  TGI: 4.54 µM
K-562 leukemia
  GI50: 3.02 µM
  TGI: 11.5 µM

## COc1ccc(C(=O)/C=C/c2cc(F)cc(C(F)(F)F)c2)cc1S(N)(=O)=O
SF-295 CNS
  GI50: 3.62 µM
  TGI: 13.4 µM
MALME-3M melanoma
  GI50: 12.1 µM
  TGI: 24.7 µM
SNB-19 CNS
  GI50: 3.07 µM
  TGI: 11.3 µM
MDA-MB-231 breast
  GI50: 2.06 µM
  TGI: 4.81 µM
NCI/ADR-RES ovarian
  GI50: 2.16 µM
  TGI: 5.44 µM
OVCAR-8 ovarian
  GI50: 3.21 µM
  TGI: 11.4 µM
PC-3 prostate
  GI50: 2.48 µM
  TGI: 7.3 µM
ACHN renal
  GI50: 1.72 µM
  TGI: 3.28 µM
HCC-2998 colon
  GI50: 1.98 µM
  TGI: 3.71 µM
SNB-75 CNS
  GI50: 2.45 µM
  TGI: 13.2 µM
OVCAR-4 ovarian
  GI50: 5.86 µM
  TGI: 18.7 µM
HOP-92 NSCLC
  GI50: 6.32 µM
  TGI: 21.4 µM
TK-10 renal
  GI50: 4.69 µM
  TGI: 18.5 µM
BT-549 breast
  GI50: 6.4 µM
  TGI: 19.5 µM
HCT-15 colon
  GI50: 1.59 µM
  TGI: 3.39 µM
OVCAR-3 ovarian
  GI50: 3.62 µM
  TGI: 11.9 µM
SW-620 colon
  GI50: 1.81 µM
  TGI: 3.55 µM
KM12 colon
  GI50: 1.96 µM
  TGI: 4.08 µM
A498 renal
  GI50: 13.9 µM
  TGI: 26.8 µM
UACC-62 melanoma
  GI50: 3.28 µM
  TGI: 13.6 µM
MDA-MB-435
  GI50: 2.02 µM
  TGI: 4.91 µM
OVCAR-5 ovarian
  GI50: 7.88 µM
  TGI: 20.6 µM
MCF7 breast
  GI50: 1.69 µM
  TGI: 4.42 µM
UO-31 renal
  GI50: 1.94 µM
  TGI: 5.1 µM
COLO 205 colon
  GI50: 3.79 µM
  TGI: 13.2 µM
SF-539 CNS
  GI50: 1.73 µM
  TGI: 3.17 µM
NCI-H226 lung
  GI50: 8.55 µM
  TGI: 23.6 µM
NCI-H460 lung
  GI50: 3.41 µM
  TGI: 11.8 µM
HCT-116 colon
  GI50: 1.58 µM
  TGI: 3.39 µM
T-47D breast
  GI50: 11 µM
  TGI: 25.8 µM
SF-268 CNS
  GI50: 12 µM
  TGI: 43.3 µM
EKVX NSCLC
  GI50: 5.07 µM
  TGI: 18.3 µM
NCI-H23 lung
  GI50: 2.23 µM
  TGI: 5.48 µM
DU-145 prostate
  GI50: 12 µM
  TGI: 25 µM
CCRF-CEM leukemia
  GI50: 1.5 µM
  TGI: 6.79 µM
MDA-MB-468 breast
  GI50: 1.66 µM
  TGI: 3.34 µM
MOLT-4 leukemia
  GI50: 2.44 µM
  TGI: 9.1 µM
SK-MEL-5 melanoma
  GI50: 5.52 µM
  TGI: 17.9 µM
786-0 renal
  GI50: 1.84 µM
  TGI: 3.79 µM
SK-MEL-28 melanoma
  GI50: 2.63 µM
  TGI: 7.2 µM
LOX IMVI melanoma
  GI50: 1.42 µM
  TGI: 2.72 µM
HOP-62 NSCLC
  GI50: 7.34 µM
  TGI: 22.2 µM
RXF 393 renal
  GI50: 3.97 µM
  TGI: 16.1 µM
A549 NSCLC
  GI50: 4.3 µM
  TGI: 23.1 µM
UACC-257 melanoma
  GI50: 11.3 µM
  TGI: 25.8 µM
SK-OV-3 ovarian
  GI50: 15.7 µM
  TGI: 31.8 µM
SK-MEL-2 melanoma
  GI50: 15.5 µM
  TGI: 31.2 µM
HS 578T breast
  GI50: 15.9 µM
  TGI: 54.9 µM
M14 melanoma
  GI50: 3.14 µM
  TGI: 11.2 µM
U251 CNS
  GI50: 1.75 µM
  TGI: 3.79 µM
HL-60(TB) leukemia
  GI50: 2.33 µM
  TGI: 8.4 µM
SN12C renal
  GI50: 1.88 µM
  TGI: 4.59 µM
CAKI-1 renal
  GI50: 4.65 µM
  TGI: 17.7 µM
IGROV1 ovarian
  GI50: 3.15 µM
  TGI: 11.6 µM
RPMI-8226 leukemia
  GI50: 2.13 µM
  TGI: 7.47 µM
NCI-H522 lung
  GI50: 1.9 µM
  TGI: 3.98 µM
K-562 leukemia
  GI50: 2.05 µM
  TGI: > 100 µM
